Results as given in ChEMBL document CHEMBL5052819, “Peptide targeting gip and glp-2 receptors for treating bone disorders” (2020).
Activity calls are given as the source filed them. The rule behind the calls is not given here.

Tests used:
MC3T3-E1 = experiment: Cytotoxicity against mouse MC3T3-E1 cells at 1 uM measured after 24 hrs by trypan blue assay; assay type: toxicity, cell-based; settings: mc3t3-e1, 24 h
RAW264.7 = experiment: Inhibition of RANKL-induced osteoclastogenesis in mouse RAW264.7 cells measured after 110 hrs by TRAcP staining based assay; assay type: functional, cell-based; settings: RAW264.7, 110 h
[1] = Toxicity in ovariectomized BALB/c mouse assessed as effect on body mass at 25 nmol/kg/day, sc; settings: in vivo
Mus musculus [2] = experiment: Anti-osteoporosis activity in ovariectomized BALB/c mouse at 25 nmol/kg/day, sc assessed as increase in ultimate displacement of cortical bone; assay type: functional
Mus musculus [3] = experiment: Anti-osteoporosis activity in ovariectomized BALB/c mouse at 25 nmol/kg/day, sc assessed as increase in post-yield displacement of cortical bone; assay type: functional
Mus musculus [4] = experiment: Anti-osteoporosis activity in ovariectomized BALB/c mouse at 25 nmol/kg/day, sc assessed as increase in work-to-fracture of cortical bone; assay type: functional
Mus musculus [5] = experiment: Anti-osteoporosis activity in ovariectomized BALB/c mouse at 25 nmol/kg/day, sc assessed as effect on cortical bone microarchitecture; assay type: functional, organism-based
Mus musculus [6] = experiment: Anti-osteoporosis activity in ovariectomized BALB/c mouse at 25 nmol/kg/day, sc assessed as reduction in trabecular bone stiffness; assay type: functional, organism-based
Mus musculus [7] = experiment: Anti-osteoporosis activity in ovariectomized BALB/c mouse at 25 nmol/kg, sc assessed as increase in collagen maturity; assay type: functional
Mus musculus [8] = experiment: Anti-osteoporosis activity in ovariectomized BALB/c mouse at 25 nmol/kg, sc assessed as increase in collagen maturity heterogeneity; assay type: functional
Mus musculus [9] = experiment: Anti-osteoporosis activity in ovariectomized BALB/c mouse at 25 nmol/kg, sc assessed as increase in acid phosphate content heterogeneity; assay type: functional
Mus musculus [10] = experiment: Anti-osteoporosis activity in ovariectomized BALB/c mouse at 25 nmol/kg, sc assessed as decrease in mean phosphate/amide ratio; assay type: functional; design: scale not given: the % may be the effect or the level left
[11] = Toxicity in ovariectomized BALB/c mouse at 25 nmol/kg, sc assessed as effect on morphological changes in liver; assay type: organism-based; settings: in vivo
[12] = Toxicity in ovariectomized BALB/c mouse at 25 nmol/kg, sc assessed as effect on morphological changes in pancreas; assay type: organism-based; settings: in vivo
HEK293 = experiment: Activation of GIP/GLP2 receptor transfected in human HEK293 cells assessed as increase in intracellular cAMP level at 1 nM; assay type: cell-based; settings: filed as activator
[13] = Toxicity in ovariectomized BALB/c mouse assessed as effect on body mass at 25 to 100 nmol/kg/day, sc

In the case of CC[C@H](C)[C@H](NC(=O)[C@H](CO)NC(=O)[C@H](CCSC)NC(=O)[C@H](CC(=O)O)NC(=O)[C@H](CO)NC(=O)CNC(=O)[C@H](Cc1ccccc1)NC(=O)[C@H](CO)NC(=O)CNC(=O)[C@H](CCC(=O)O)NC(=O)CNC(=O)[C@@H](N)Cc1cnc[nH]1)C(=O)N[C@@H](C)C(=O)N[C@@H](CC(C)C)C(=O)N[C@@H](CC(=O)O)C(=O)N[C@@H](CCCCN)C(=O)N[C@@H](CC(C)C)C(=O)N[C@@H](C)C(=O)N[C@@H](C)C(=O)N[C@@H](CCCNC(=N)N)C(=O)N[C@@H](CC(=O)O)C(=O)N[C@@H](Cc1ccccc1)C(=O)N[C@H](C(=O)N[C@@H](CC(N)=O)C(=O)N[C@@H](Cc1c[nH]c2ccccc12)C(=O)N[C@@H](CC(C)C)C(=O)N[C@@H](CC(C)C)C(=O)N[C@@H](CCC(N)=O)C(=O)N[C@H](C(=O)N[C@@H](CCCCN)C(=O)N[C@H](C(=O)N[C@H](C(=O)N[C@@H](CC(=O)O)C(N)=O)[C@@H](C)O)[C@@H](C)CC)[C@@H](C)O)C(C)C, the Activity (MC3T3-E1) is reported as “Non-Toxic”, the IC50 (RAW264.7) is reported as 0.0182 nM and the Activity [1] is reported as “Non-Toxic”. It also gave an Activity (Mus musculus [2]) of 34%, an Activity (Mus musculus [3]) of 70% and an Activity (Mus musculus [4]) of 37%. For the same compound, the Activity (Mus musculus [5]) was “inactive”, the Activity (Mus musculus [6]) was “Active” and the Activity (Mus musculus [7]) was 10%. For the same compound, the Activity (Mus musculus [8]) was 28%, the Activity (Mus musculus [9]) was 21% and the Activity (Mus musculus [10]) was 6%. For the same compound, the Activity [11] was “Non-Toxic”, the Activity [12] was “Non-Toxic” and the Activity (HEK293) was “Active”.

Compound CC(C)C[C@H](NC(=O)[C@H](CCCCN)NC(=O)[C@H](CC(=O)O)NC(=O)[C@H](CC(C)C)NC(=O)[C@@H](NC(=O)[C@@H](NC(=O)[C@H](CO)NC(=O)[C@H](Cc1ccccc1)NC(=O)[C@H](CC(=O)O)NC(=O)[C@H](CO)NC(=O)[C@@H](NC(=O)[C@H](Cc1ccccc1)NC(=O)[C@H](CO)NC(=O)CNC(=O)[C@H](CCC(=O)O)NC(=O)CNC(=O)[C@@H](N)Cc1cnc[nH]1)C(C)C)C(C)C)C(C)C)C(=O)N[C@@H](C)C(=O)N[C@@H](C)C(=O)N[C@@H](CCCNC(=N)N)C(=O)N[C@@H](CC(=O)O)C(=O)N[C@@H](Cc1ccccc1)C(=O)N[C@H](C(=O)N[C@@H](CC(N)=O)C(=O)N[C@@H](Cc1c[nH]c2ccccc12)C(=O)N[C@@H](CC(C)C)C(=O)N[C@@H](CC(C)C)C(=O)N[C@@H](CCC(N)=O)C(=O)N[C@H](C(=O)N[C@@H](CCCCN)C(N)=O)[C@@H](C)O)C(C)C has an IC50 (RAW264.7) of 0.0096 nM.

For CC[C@H](C)[C@H](NC(=O)[C@H](CO)NC(=O)[C@H](Cc1ccccc1)NC(=O)[C@H](CC(=O)O)NC(=O)[C@H](CO)NC(=O)[C@@H](NC(=O)[C@H](Cc1ccccc1)NC(=O)[C@H](CO)NC(=O)CNC(=O)[C@H](CCC(=O)O)NC(=O)CNC(=O)[C@@H](N)Cc1cnc[nH]1)C(C)C)C(=O)N[C@@H](C)C(=O)N[C@@H](CC(C)C)C(=O)N[C@@H](CC(=O)O)C(=O)N[C@@H](CCCCN)C(=O)N[C@@H](CC(C)C)C(=O)N[C@@H](C)C(=O)N[C@@H](C)C(=O)N[C@@H](CCCNC(=N)N)C(=O)N[C@@H](CC(=O)O)C(=O)N[C@@H](Cc1ccccc1)C(=O)N[C@H](C(=O)N[C@@H](CC(N)=O)C(=O)N[C@@H](Cc1c[nH]c2ccccc12)C(=O)N[C@@H](CC(C)C)C(=O)N[C@@H](CC(C)C)C(=O)N[C@@H](CCC(N)=O)C(=O)N[C@H](C(=O)N[C@@H](CCCCN)C(N)=O)[C@@H](C)O)C(C)C, the IC50 (RAW264.7) was 0.18 nM.

With CC[C@H](C)[C@H](NC(=O)[C@H](CO)NC(=O)[C@H](Cc1ccccc1)NC(=O)[C@H](CC(=O)O)NC(=O)[C@H](CO)NC(=O)[C@@H](NC(=O)[C@H](Cc1ccccc1)NC(=O)[C@H](CO)NC(=O)CNC(=O)[C@H](CCC(=O)O)NC(=O)CNC(=O)[C@@H](N)Cc1cnc[nH]1)[C@@H](C)O)C(=O)N[C@@H](C)C(=O)N[C@@H](CC(C)C)C(=O)N[C@@H](CC(=O)O)C(=O)N[C@@H](CCCCN)C(=O)N[C@@H](CC(C)C)C(=O)N[C@@H](C)C(=O)N[C@@H](C)C(=O)N[C@@H](CCCNC(=N)N)C(=O)N[C@@H](CC(=O)O)C(=O)N[C@@H](Cc1ccccc1)C(=O)N[C@H](C(=O)N[C@@H](CC(N)=O)C(=O)N[C@@H](Cc1c[nH]c2ccccc12)C(=O)N[C@@H](CC(C)C)C(=O)N[C@@H](CC(C)C)C(=O)N[C@@H](CCC(N)=O)C(=O)N[C@H](C(=O)N[C@@H](CCCCN)C(N)=O)[C@@H](C)O)C(C)C the IC50 (RAW264.7) was 0.0168 nM.

For CC[C@H](C)[C@H](NC(=O)[C@H](CO)NC(=O)[C@H](Cc1ccc(O)cc1)NC(=O)[C@H](CC(=O)O)NC(=O)[C@H](CO)NC(=O)[C@@H](NC(=O)[C@H](Cc1ccccc1)NC(=O)[C@@H](NC(=O)CNC(=O)[C@H](CCC(=O)O)NC(=O)[C@@H](C)NC(=O)[C@@H](N)Cc1ccc(O)cc1)[C@@H](C)O)[C@@H](C)CC)C(=O)N[C@@H](C)C(=O)N[C@@H](CCSC)C(=O)N[C@@H](CC(=O)O)C(=O)N[C@@H](CCCCN)C(=O)N[C@H](C(=O)N[C@@H](Cc1cnc[nH]1)C(=O)N[C@@H](CCC(N)=O)C(=O)N[C@@H](CCC(N)=O)C(=O)N[C@@H](CC(=O)O)C(=O)N[C@@H](Cc1ccccc1)C(=O)N[C@H](C(=O)N[C@@H](CC(N)=O)C(=O)N[C@@H](Cc1c[nH]c2ccccc12)C(=O)N[C@@H](CC(C)C)C(=O)N[C@@H](CC(C)C)C(=O)N[C@@H](C)C(=O)N[C@@H](CCC(N)=O)C(=O)N[C@@H](CCCCN)C(N)=O)C(C)C)[C@@H](C)CC, the IC50 (RAW264.7) was 0.0401 nM and the Activity (HEK293) was “Active”.

CC(C)C[C@H](NC(=O)[C@H](CCCCN)NC(=O)[C@H](CC(=O)O)NC(=O)[C@H](CC(C)C)NC(=O)[C@@H](NC(=O)[C@@H](NC(=O)[C@H](CO)NC(=O)[C@H](CC(C)C)NC(=O)[C@H](CC(=O)O)NC(=O)[C@H](CO)NC(=O)[C@@H](NC(=O)[C@H](Cc1ccccc1)NC(=O)[C@H](CO)NC(=O)CNC(=O)[C@H](CCC(=O)O)NC(=O)CNC(=O)[C@@H](N)Cc1cnc[nH]1)C(C)C)C(C)C)C(C)C)C(=O)N[C@@H](C)C(=O)N[C@@H](C)C(=O)N[C@@H](CCCNC(=N)N)C(=O)N[C@@H](CC(=O)O)C(=O)N[C@@H](Cc1ccccc1)C(=O)N[C@H](C(=O)N[C@@H](CC(N)=O)C(=O)N[C@@H](Cc1c[nH]c2ccccc12)C(=O)N[C@@H](CC(C)C)C(=O)N[C@@H](CC(C)C)C(=O)N[C@@H](CCC(N)=O)C(=O)N[C@H](C(=O)N[C@@H](CCCCN)C(N)=O)[C@@H](C)O)C(C)C showed an IC50 (RAW264.7) of 0.0107 nM.

CC[C@H](C)[C@H](NC(=O)[C@H](CO)NC(=O)[C@H](CCSC)NC(=O)[C@H](CCC(=O)O)NC(=O)[C@H](CO)NC(=O)[C@@H](NC(=O)[C@H](Cc1ccccc1)NC(=O)[C@H](CO)NC(=O)CNC(=O)[C@H](CCC(=O)O)NC(=O)CNC(=O)[C@@H](N)Cc1cnc[nH]1)C(C)C)C(=O)N[C@H](C(=O)N[C@@H](CC(C)C)C(=O)N[C@@H](CC(=O)O)C(=O)N[C@@H](CCCCN)C(=O)N[C@@H](CC(C)C)C(=O)N[C@@H](C)C(=O)N[C@@H](C)C(=O)N[C@@H](CCCNC(=N)N)C(=O)N[C@@H](CC(=O)O)C(=O)N[C@@H](Cc1ccccc1)C(=O)N[C@H](C(=O)N[C@@H](CC(N)=O)C(=O)N[C@@H](Cc1c[nH]c2ccccc12)C(=O)N[C@@H](CC(C)C)C(=O)N[C@@H](CC(C)C)C(=O)N[C@@H](CCC(N)=O)C(=O)N[C@H](C(=O)N[C@@H](CCCCN)C(N)=O)[C@@H](C)O)C(C)C)C(C)C gave an IC50 (RAW264.7) of 4.63 nM.

Compound CSCC[C@H](NC(=O)[C@H](CC(=O)O)NC(=O)[C@H](CO)NC(=O)[C@@H](NC(=O)[C@H](Cc1ccccc1)NC(=O)[C@H](CO)NC(=O)CNC(=O)[C@H](CCC(=O)O)NC(=O)CNC(=O)[C@@H](N)Cc1cnc[nH]1)C(C)C)C(=O)N[C@@H](CO)C(=O)N[C@H](C(=O)N[C@H](C(=O)N[C@@H](CC(C)C)C(=O)N[C@@H](CC(=O)O)C(=O)N[C@@H](CCCCN)C(=O)N[C@@H](CC(C)C)C(=O)N[C@@H](C)C(=O)N[C@@H](C)C(=O)N[C@@H](CCCNC(=N)N)C(=O)N[C@@H](CC(=O)O)C(=O)N[C@@H](Cc1ccccc1)C(=O)N[C@H](C(=O)N[C@@H](CC(N)=O)C(=O)N[C@@H](Cc1c[nH]c2ccccc12)C(=O)N[C@@H](CC(C)C)C(=O)N[C@@H](CC(C)C)C(=O)N[C@@H](CCC(N)=O)C(=O)N[C@H](C(=O)N[C@@H](CCCCN)C(N)=O)[C@@H](C)O)C(C)C)C(C)C)C(C)C has an IC50 (RAW264.7) of 0.0116 nM.

With CC[C@H](C)[C@H](NC(=O)[C@H](CO)NC(=O)[C@H](CCSC)NC(=O)[C@H](CC(=O)O)NC(=O)[C@H](CO)NC(=O)[C@@H](NC(=O)[C@H](Cc1ccccc1)NC(=O)[C@H](CO)NC(=O)CNC(=O)[C@H](CCC(=O)O)NC(=O)CNC(=O)[C@@H](N)Cc1cnc[nH]1)C(C)C)C(=O)N[C@H](C(=O)N[C@@H](CC(C)C)C(=O)N[C@@H](CC(=O)O)C(=O)N[C@@H](CCCCN)C(=O)N[C@@H](CC(C)C)C(=O)N[C@@H](C)C(=O)N[C@@H](C)C(=O)N[C@@H](CCCNC(=N)N)C(=O)N[C@@H](CC(=O)O)C(=O)N[C@@H](Cc1ccccc1)C(=O)N[C@H](C(=O)N[C@@H](CC(N)=O)C(=O)N[C@@H](Cc1c[nH]c2ccccc12)C(=O)N[C@@H](CC(C)C)C(=O)N[C@@H](CC(C)C)C(=O)N[C@@H](CCC(N)=O)C(=O)N[C@H](C(=O)N[C@@H](CCCCN)C(N)=O)[C@@H](C)O)C(C)C)C(C)C the IC50 [13] was “Non-Toxic”.
